Results from patent US20240238305A1, “FORMULATIONS OF 3-((3-(4-(2-(ISOBUTYLSULFONYL)PHENOXY)-3-(TRIFLUOROMETHYL)PHENYL)-1,2,4-OXADIAZOL-5-YL)METHYL)-5,5-DIMETHYL-1-(2-MORPHOLINOETHYL)IMIDAZOLIDINE-2,4-DIONE” (Novartis AG, priority 2021, published 2024).
Converted amounts (≈) assume the structure as drawn. “And” between values parts separate entries of the source, which are not always exact repeats. Equal values may be shown once.

Experiments:
[1] = Solubility of Compound 1 in aqueous buffers; assay type: physicochemical
Text: 3-((3-(4-(2-(isobutylsulfonyl)phenoxy)-3-(trifluoromethyl)phenyl)-1,2,4-oxadiazol-5-yl)methyl)-5,5-dimethyl-1-(2-morpholinoethyl)imidazolidine-2,4-dione (“Compound 1”) is an LXR agonist having biological activity that makes the compound useful for treating ocular diseases such as MGD (see, e.g., Example 3). However, its physical properties make formulating Compound 1 for therapeutic use (e.g., in human subjects) difficult. Compound 1 is poorly water soluble, making it difficult to formulate compositions of Compound 1 with desired concentrations of Compound 1 for therapeutic use. […] Moreover, Compound 1 has a melting temperature of only 118° C., which makes heat sterilization of Compound 1 difficult. In spite of these challenges, formulations of Compound 1 which can be used, for example, in the treatment of ocular diseases and disorders such as dry eye disease and MGD, have been developed.

rat meibum = experiment: In vivo measurement of lowered meibum melting temperature; set-up: species or system Sprague Dawley rats; conditions: rats
Experimental: The lowering of rat meibum melting temperature by Compound 1 was measured in naive Sprague Dawley rats. The test animals were administered either vehicle, or a suspension of 1% of Compound 1, as eye drops twice a day for fourteen days. The rat meibum was collected after administration of the compounds and analyzed by differential scanning calorimetry to measure the melting point. The lowering of meibum melting point in rats administered Compound 1 was compared to the vehicle.
Melting properties of meibum were obtained using differential scanning calorimetry thermograms, recorded on a TA Discovery Q5000 (ThermoAnalytical). Samples were sealed in standard 40 μl aluminum pans and subjected to a heat-cool-heat cycle with melting temperatures being recorded on the second heating ramp. The samples were first heated to 150° C. at 30K/min then cooled −30° C. at 30K/min. Next, the sample was heated to 75° C. with an underlying heating rate of 2K/min, a period of modulation of 60 seconds and a temperature amplitude of modulation of 1° C. Dry N2 gas, at a flow rate of 50 mL/min was used to purge the DSC equipment during the measurement. Onset of melting and peak temperatures were recorded with peak temperature quoted as the melting point.
Results from the assay are shown Table 3 and in FIG. 4. Results were analyzed using an unpaired t test with Welch's correction.

[2] = Wet ball milling: particle size and soluble fraction; assay type: physicochemical; conditions: aqueous with cosolvent or surfactant or cyclodextrin, thermodynamic from solid
Experimental: The effect of wet ball milling on Compound 1 particles size and solubility in Kolliphor® EL, Kolliphor® RH40, and tyloxopol s was assessed. […] Kolliphor® RH 40 appeared to be best wetting agent, with Kolliphor® EL also performing well.

[3] = Stability of Compound 1 on sterilization (steam, gamma irradiation); assay type: physicochemical
Experimental: The stability of Compound 1 when sterilized by steam (autoclaving) was assessed. […] Gamma irradiation was then assessed as an alternative sterilization technique. Samples of Compound 1 were irradiated with 10-20 kGy or 20-30 kGy of gamma irradiation.

[4] = Solubility of Compound 1 in different excipients; assay type: physicochemical
Experimental: The solubility of Compound 1 in different excipients was assessed.

[5] = Stability of Compound 1 in different excipients, 3 months; assay type: physicochemical; conditions: for HPLC (% Remaining): initial purity 99.19%
Experimental: The stability of Compound 1 in different excipients was assessed.

[6] = 0.5% Kolliphor ® EL/0.5% Carbopol ® 974P, 5° C.
[7] = 0.5% Kolliphor ® EL/0.5% Carbopol ® 974P, 25° C.
[8] = 0.5% Kolliphor ® EL/0.5% Carbopol ® 974P, 40° C.
[9] = 0.5% Kolliphor ® EL/0.5% HEC, 5° C.
[10] = 0.5% Kolliphor ® EL/0.5% HEC, 25° C.
[11] = 0.5% Kolliphor ® EL/0.5% HEC, 40° C.
[12] = 0.5% Kolliphor ® RH40/0.5% Carbopol ® 974P, 5° C.
[13] = 0.5% Kolliphor ® RH40/0.5% Carbopol ® 974P, 25° C.
[14] = 0.5% Kolliphor ® RH40/0.5% Carbopol ® 974P, 40° C.
[15] = 0.5% Kolliphor ® RH40/0.5% HEC, 5° C.
[16] = 0.5% Kolliphor ® RH40/0.5% HEC, 25° C.
[17] = 0.5% Kolliphor ® RH40/0.5% HEC, 40° C.

## CC(C)CS(=O)(=O)c1ccccc1Oc1ccc(-c2noc(CN3C(=O)N(CCN4CCOCC4)C(C)(C)C3=O)n2)cc1C(F)(F)F [Compound 1, 3-((3-(4-(2-(isobutylsulfonyl)phenoxy)-3-(trifluoromethyl)phenyl)-1,2,4-oxadiazol-5-yl)methyl)-5,5-dimethyl-1-(2-morpholinoethyl)imidazolidine-2,4-dione]
[1]; 10 mM acetate buffer, aqueous buffer, 10 mM acetate, pH 4, read-out: solubility
  solubility: 25 µg/mL (≈ 36.8 µM)
[1]; 10 mM acetate buffer, aqueous buffer, 10 mM acetate, pH 5, read-out: solubility
  solubility: 1 µg/mL (≈ 1.47 µM)
[1]; 10 mM phosphate buffer at pH 7
  solubility: limit of quantification
Rat meibum; 1% suspension eye drops twice a day for fourteen days, DSC peak temperature, in °C
  Mean ± SEM meibum melting temperature: 28.08 ± 0.2945
Rat meibum; versus vehicle, 1% suspension twice a day, fourteen days, P value <0.0001
  Change of Tm: −2.181 ± 0.3731
[2]; 0.25% Tyloxapol @ 24 hr, 3 mm beads
  solubility at 24 h: 15 µg/mL (≈ 22.1 µM)
[2]; 0.5% Tyloxapol @ 24 hr, 3 mm beads
  solubility at 24 h: 76 µg/mL (≈ 112 µM)
[2]; 1% Kolliphor ® EL @ 24 hr, 3 mm beads
  solubility at 24 h: 270 µg/mL (≈ 397 µM)
[2]; 1% Kolliphor ® RH-40 @ 24 hr, 3 mm beads
  solubility at 24 h: 344 µg/mL (≈ 506 µM)
[2]; 2% Kolliphor ® EL @ 24 hr, 3 mm beads
  solubility at 24 h: 528 µg/mL (≈ 777 µM)
[2]; 2% Kolliphor ® RH40, @ 24 hr, 1 mm beads
  solubility at 24 h: 650 µg/mL (≈ 956 µM)
[2]; 2% Kolliphor ® RH-40 @ 24 hr, 3 mm beads
  solubility at 24 h: 669 µg/mL (≈ 984 µM)
[2]; 4% Kolliphor ® RH40 @ 24 hr, 1 mm beads
  solubility at 24 h: 1200 µg/mL (≈ 1760 µM)
[3]; 10-20 kGy, samples 7-9
  HPLC Assay (% Remaining) Average: 98.23 ± 0.01%
[3]; 20-30 kGy, samples 10-12
  HPLC Assay (% Remaining) Average: 98.14 ± 0.03%
[3]; gamma irradiated, 10-20 kGy or 20-30 kGy
  degradation of Compound 1 by HPLC: less than 0.5%
[3]; gamma irradiation 10-20 kGy
  Appearance: White powder
  HPLC Assay (% Remaining): 98.23% and 98.24% and 98.22%
  XRPD (2-Theta): Form A
[3]; gamma irradiation 20-30 kGy
  Appearance: White powder
  HPLC Assay (% Remaining): 98.17% and 98.13% and 98.11%
  XRPD (2-Theta): Form A
[3]; non-irradiated control
  Appearance: White powder
  HPLC Assay (% Remaining): 98.51% and 98.48% and 98.44% and 98.46% and 98.49% and 98.50%
  XRPD (2-Theta): Form A
[3]; non-irradiated control, samples 1-6
  HPLC Assay (% Remaining) Average: 98.48 ± 0.03%
[3]; steam (autoclaving), data not shown
  degradation on steam sterilization: Significant degradation
[4]; 0.5% Tween ® 80 pH 7
  Physical form: No change, Form A
[4]; 0.5% Tyloxapol pH 7
  Physical form: No change, Form A
[4]; 5% HP-β-CD pH 5
  Physical form: No change, Form A
[4]; 5% HP-β-CD pH 6
  Physical form: No change, Form A
[4]; 5% HP-β-CD pH 7
  Physical form: No change, Form A
[4]; 5% HP-γ-CD pH 7
  Physical form: No change, Form A
[4]; 5% Kolliphor ® EL pH 5
  Physical form: No change, Form A
[4]; 5% Kolliphor ® EL pH 6
  Physical form: No change, Form A
[4]; 5% Kolliphor ® EL pH 7
  Physical form: No change, Form A
[4]; 5% PEG400 pH 7
  Physical form: No change, Form A
[4]; 5% PVP pH 7
  Physical form: No change, Form A
[4]; 5% Polyvinylpyrrolidone (PVP) pH 7, measured pH 6.97
  Compound 1 solubility: <LOQ
[4]; 10% transcutol pH 7
  Physical form: No change, Form A
[4]; 10% transcutol pH 7, measured pH 6.99
  Compound 1 solubility: <LOQ
[4]; aqueous with cosolvent or surfactant or cyclodextrin, thermodynamic from solid, 0.5% Tween ® 80 pH 7, measured pH 7.1
  solubility: 78 µg/mL (≈ 115 µM)
[4]; aqueous with cosolvent or surfactant or cyclodextrin, thermodynamic from solid, 0.5% Tyloxapol pH 7
  solubility: 34 µg/mL (≈ 50 µM)
[4]; aqueous with cosolvent or surfactant or cyclodextrin, thermodynamic from solid, 5% HP-β-CD pH 5, measured pH 5.28
  solubility: 180 µg/mL (≈ 265 µM)
[4]; aqueous with cosolvent or surfactant or cyclodextrin, thermodynamic from solid, 5% HP-β-CD pH 6, measured pH 6.13
  solubility: 70 µg/mL (≈ 103 µM)
[4]; aqueous with cosolvent or surfactant or cyclodextrin, thermodynamic from solid, 5% HP-β-CD pH 7, measured pH 7.03
  solubility: 50 µg/mL (≈ 73.6 µM)
[4]; aqueous with cosolvent or surfactant or cyclodextrin, thermodynamic from solid, 5% HP-γ-CD pH 7, measured pH 6.9
  solubility: 225 µg/mL (≈ 331 µM)
[4]; aqueous with cosolvent or surfactant or cyclodextrin, 5% Kolliphor ® EL pH 5, measured pH 5.34
  solubility: 1010 µg/mL (≈ 1490 µM)
[4]; aqueous with cosolvent or surfactant or cyclodextrin, 5% Kolliphor ® EL pH 6, measured pH 6.16
  solubility: 740 µg/mL (≈ 1090 µM)
[4]; aqueous with cosolvent or surfactant or cyclodextrin, 5% Kolliphor ® EL pH 7, measured pH 7.01
  solubility: 690 µg/mL (≈ 1020 µM)
[4]; aqueous with cosolvent or surfactant or cyclodextrin, 5% Kolliphor ® RH40, measured pH 6.91
  solubility: 443 µg/mL (≈ 652 µM)
[4]; pH 7.1, aqueous with cosolvent or surfactant or cyclodextrin, 5% PEG400 pH 7, measured pH 7.10
  solubility: 3 µg/mL (≈ 4.41 µM)
[5]; 0.5% Carbopol ® 974P, 5° C.
  XRPD (2-Theta): Form
  HPLC (% Remaining): 99.19%
[5]; 0.5% Carbopol ® 974P, 25° C.
  XRPD (2-Theta): Form
  HPLC (% Remaining): 99.16%
[5]; 0.5% Carbopol ® 974P, 40° C.
  XRPD (2-Theta): Form
  HPLC (% Remaining): 99.14%
[5]; 0.5% HEC, 5° C.
  XRPD (2-Theta): Form
  HPLC (% Remaining): 99.18%
[5]; 0.5% HEC, 25° C.
  XRPD (2-Theta): Form
  HPLC (% Remaining): 99.20%
[5]; 0.5% HEC, 40° C.
  XRPD (2-Theta): Form
  HPLC (% Remaining): 99.17%
[5]; 0.5% Kolliphor ® EL, 5° C.
  XRPD (2-Theta): Form
  HPLC (% Remaining): 99.18%
[5]; 0.5% Kolliphor ® EL, 25° C.
  XRPD (2-Theta): Form
  HPLC (% Remaining): 99.18%
[5]; 0.5% Kolliphor ® EL, 40° C.
  XRPD (2-Theta): Form
  HPLC (% Remaining): 99.00%
[5]; [6]
  XRPD (2-Theta): Form
  HPLC (% Remaining): 99.18%
[5]; [7]
  XRPD (2-Theta): Form
  HPLC (% Remaining): 99.02%
[5]; [8]
  XRPD (2-Theta): Form
  HPLC (% Remaining): 97.89%
[5]; [9]
  XRPD (2-Theta): Form
  HPLC (% Remaining): 99.19%
[5]; [10]
  XRPD (2-Theta): Form
  HPLC (% Remaining): 99.02%
[5]; [11]
  XRPD (2-Theta): Form
  HPLC (% Remaining): 98.94%
[5]; 0.5% Kolliphor ® RH40, 5° C.
  XRPD (2-Theta): Form
  HPLC (% Remaining): 99.18%
[5]; 0.5% Kolliphor ® RH40, 25° C.
  XRPD (2-Theta): Form
  HPLC (% Remaining): 99.18%
[5]; 0.5% Kolliphor ® RH40, 40° C.
  XRPD (2-Theta): Form
  HPLC (% Remaining): 99.17%
[5]; [12]
  XRPD (2-Theta): Form
  HPLC (% Remaining): 99.18%
[5]; [13]
  XRPD (2-Theta): Form
  HPLC (% Remaining): 99.17%
[5]; [14]
  XRPD (2-Theta): Form
  HPLC (% Remaining): 98.87%
[5]; [15]
  XRPD (2-Theta): Form
  HPLC (% Remaining): 99.19%
[5]; [16]
  XRPD (2-Theta): Form
  HPLC (% Remaining): 99.18%
[5]; [17]
  XRPD (2-Theta): Form
  HPLC (% Remaining): 99.18%
